Results from patent US20210386367A1, “DEVICES AND SYSTEMS FOR GASTROINTESTINAL MICROBIOME DETECTION AND MANIPULATION” (Progenity, Inc., priority 2018, published 2021).
In brackets after ≈: the same amount, converted by molar mass. Several values for one entry are separate records, joined by “and”; a condition that tells them apart may be missing. Identical values can stand only once. Like-named read-outs stand apart in the source and are kept apart here.

What was measured:
Format in all cases: cell-based
[1] = tested on: Prevotella spp. clinical isolates; experiment: MIC distribution against clinical isolates; conditions: 30 Prevotella spp. isolates
[2] = tested on: Bacteroides non fragilis clinical isolates; experiment: MIC distribution against clinical isolates; conditions: 29 Bacteroides non-fragilis isolates
[3] = tested on: Bacteroides fragilis clinical isolates; experiment: MIC distribution against clinical isolates; conditions: 30 B. fragilis isolates
In short: (§1)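 MIC is the lowest agent concentration preventing growth, determined by broth or agar dilution with serial compound dilutions and incubation under appropriate conditions (e.g., overnight at 37° C.). MIC90 is the concentration inhibiting ≥90% of isolates in the test population.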

[4] = tested on: Klebsiella spp.; experiment: Broth microdilution MIC, 50 clinical isolates (20 K. oxytoca, 30 K. pneumoniae)
Method: Minimal inhibitory concentration (MIC) values were determined by broth microdilution or agar dilution in accordance with guidelines from the Clinical and Laboratory Standards Institute (CLSI; (1) “Methods for Dilution Antimicrobial Susceptibility Tests for Bacteria That Grow Aerobically; Approved Standard; 11th ed.” CLSI standard M07-A11, 2018; (2) “Performance Standards for Antimicrobial Susceptibility Testing; Twenty-Eighth Informational Supplement,” CLSI document M100-S28, 2018; and (3) “Methods for Antimicrobial Susceptibility Testing of Anaerobic Bacteria; Approved Standard—Eighth Edition,” CLSI document M11-A8, 2012).
Tested aerobically by broth microdilution: • Escherichia coli, n=50 • Klebsiella spp., n=50 • Pseudomonas aeruginosa, n=50 • Streptococcus spp., n=50 • Staphylococcus aureus, n=50 • Enterococcus faecalis, n=50 • Enterobacter aerogenes, n=50 • Proteus mirabilis, n=50
Broth microdilution testing of aerobic bacteria was conducted in cation-adjusted Mueller Hinton broth (MHBII). For testing streptococci, lysed horse blood (LHB) was added to MHBII broth at a final concentration of 3%. Where LHB was used, it was added after filtering.
Broth microdilution susceptibility testing in 96-well microplates was conducted in accordance with CLSI methods (1) and (2). Automated liquid handlers were used to conduct serial dilutions and liquid transfers, including the Multidrop 384 (Labsystems, Helsinki, Finland), Biomek 2000, and the Biomek FX (Beckman Coulter, Fullerton, Calif.). All wells in columns 2 through 12 of a standard 96-well microdilution plate (Costar 3795) were filled with 150 μL of the appropriate diluent. Then, 300 μL of the test agents were added to the wells of column 1 of the plates at 100× the highest final concentration to be tested. Serial two-fold dilutions were made across the rows through column 11 using the Biomek 2000. The wells of column 12 contained no drug and served as the growth control wells. This plate served as the “mother plate” from which MIC assay plates or “daughter plates” were made.
The daughter plates were loaded with 190 μL per well of the appropriate medium using the Multidrop 384. The daughter plates were created using the Biomek FX which transferred 2 μL of drug solution from each well of a mother plate to each corresponding well of the daughter plate in a single step. A standardized inoculum of each test organism was prepared per CLSI methods (1) to equal a 0.5 McFarland standard, followed by a dilution of 1:20 for aerobes and 1:10 for anaerobes. The plates were then inoculated with 10 μL of the diluted inoculum using the Biomek 2000 from low to high drug concentration, resulting in a final concentration of approximately 5×10^5 CFU/mL per well. An un-inoculated plate was incubated in parallel for each medium for the purpose of assessing solubility of the drug in the test media.
Inoculated plates were stacked 3 or 4 high, covered with a sterile lid on the top plate, placed into boxes with CO2 planchets (streptococci) or plastic bags (all other isolates). Plates were incubated at 35° C. for 16-24 hr in ambient air for aerobes or for 42-48 hr in the anaerobic environment of the Bactron II anaerobe chamber (Sheldon Manufacturing Co.; Cornelius, Oreg.). Following incubation, the microplates were removed from the incubator and viewed from the bottom using a plate viewer. The MIC values were read and recorded as the lowest concentration of drug that inhibited visible growth of the organism as per CLSI methods (1) and (2).

[5] = tested on: Streptococcus agalactiae clinical isolates; experiment: MIC distribution against clinical isolates
In short: as §1

[6] = MIC 1 μg/mL, 20 S. agalactiae isolates
[7] = MIC 0.06 μg/mL, 20 S. agalactiae isolates

In the case of `Cc1ncc([N+](=O)[O-])n1CCO` [MTZ], the “Cumulative percentage of isolates inhibited at MIC” value ([1]; MIC 0.5 μg/mL) is reported as 46.7%, the “Number of test isolates at MIC” value ([1]; MIC 0.5 μg/mL) is reported as 8 and the “Cumulative percentage of isolates inhibited at MIC” value ([1]; MIC 1 μg/mL) is reported as 76.7%. The “Number of test isolates at MIC” value ([1]; MIC 1 μg/mL) was 9, the “Cumulative percentage of isolates inhibited at MIC” value ([1]; MIC 4 μg/mL) was 83.3% and the “Number of test isolates at MIC” value ([1]; MIC 4 μg/mL) was 2. The “Cumulative percentage of isolates inhibited at MIC” value ([1]; MIC 8 μg/mL) was 96.7%, the “Number of test isolates at MIC” value ([1]; MIC 8 μg/mL) was 4 and the “Cumulative percentage of isolates inhibited at MIC” value ([1]; MIC >32 μg/mL) was 100.0%. For the same compound, the “Number of test isolates at MIC” value ([1]; MIC >32 μg/mL) was 1, the “Cumulative percentage of isolates inhibited at MIC” value ([2]; MIC 0.5 μg/mL) was 55.2% and the “Number of test isolates at MIC” value ([2]; MIC 0.5 μg/mL) was 12. The “Cumulative percentage of isolates inhibited at MIC” value ([2]; MIC 1 μg/mL) was 75.9%, the “Number of test isolates at MIC” value ([2]; MIC 1 μg/mL) was 6 and the “Cumulative percentage of isolates inhibited at MIC” value ([2]; MIC 2 μg/mL) was 96.6%. The “Number of test isolates at MIC” value ([2]; MIC 2 μg/mL) was 6, the “Cumulative percentage of isolates inhibited at MIC” value ([2]; MIC >16 μg/mL) was 100.0% and the “Number of test isolates at MIC” value ([2]; MIC >16 μg/mL) was 1. The “Cumulative percentage of isolates inhibited at MIC” value ([3]; MIC 0.5 μg/mL) was 30.0%, the “Number of test isolates at MIC” value ([3]; MIC 0.5 μg/mL) was 7 and the “Cumulative percentage of isolates inhibited at MIC” value ([3]; MIC 1 μg/mL) was 76.7%. The “Number of test isolates at MIC” value ([3]; MIC 1 μg/mL) was 14, the “Cumulative percentage of isolates inhibited at MIC” value ([3]; MIC 2 μg/mL) was 100.0% and the “Number of test isolates at MIC” value ([3]; MIC 2 μg/mL) was 7. For the same compound, the “Cumulative percentage of isolates inhibited at MIC” value ([3]; MIC […]) was 6.7% and the “Number of test isolates at MIC” value ([3]; MIC […]) was 2.
“piperacillin/tazobactam [piperacillin-tazobactam]” was tested, and the “% I” value [4] was 2%, the “% R” value [4] was 24% and the “% S” value [4] was 74%. It also gave an MIC50 [4] of 4 µg/mL, an MIC90 [4] greater than 128 µg/mL and a Mode [4] of 2 µg/mL. For the same compound, the “Cumulative percentage of isolates at MIC” value ([4]; 0.5 μg/mL) was 4.0%, the “Number of test isolates at MIC” value ([4]; 0.5 μg/mL) was 2 and the “Cumulative percentage of isolates at MIC” value ([4]; 1 μg/mL) was 14.0%. The “Number of test isolates at MIC” value ([4]; 1 μg/mL) was 5, the “Cumulative percentage of isolates at MIC” value ([4]; 2 μg/mL) was 48.0% and the “Number of test isolates at MIC” value ([4]; 2 μg/mL) was 17. For the same compound, the “Cumulative percentage of isolates at MIC” value ([4]; 4 μg/mL) was 58.0%, the “Number of test isolates at MIC” value ([4]; 4 μg/mL) was 5 and the “Cumulative percentage of isolates at MIC” value ([4]; 8 μg/mL) was 68.0%. The “Number of test isolates at MIC” value ([4]; 8 μg/mL) was 5, the “Cumulative percentage of isolates at MIC” value ([4]; 16 μg/mL) was 74.0% and the “Number of test isolates at MIC” value ([4]; 16 μg/mL) was 3. For the same compound, the “Cumulative percentage of isolates at MIC” value ([4]; 64 μg/mL) was 76.0%, the “Number of test isolates at MIC” value ([4]; 64 μg/mL) was 1 and the “Cumulative percentage of isolates at MIC” value ([4]; 128 μg/mL) was 78.0%. For the same compound, the “Number of test isolates at MIC” value ([4]; 128 μg/mL) was 1, the “Cumulative percentage of isolates at MIC” value ([4]; >128 μg/mL) was 100.0% and the “Number of test isolates at MIC” value ([4]; >128 μg/mL) was 11.
With `CO[C@H]1/C=C/O[C@@]2(C)Oc3c(C)c(O)c4c(O)c(c5c(nc6cc(C)ccn65)c4c3C2=O)NC(=O)/C(C)=C\C=C\[C@H](C)[C@H](O)[C@@H](C)[C@@H](O)[C@@H](C)[C@H](OC(C)=O)[C@@H]1C` [rifaximin] the “Cumulative percentage of isolates inhibited at MIC” value ([1]; MIC 32 μg/mL) was 100.0%, the “Number of test isolates at MIC” value ([1]; MIC 32 μg/mL) was 1 and the “Number of test isolates at MIC” value ([1]; MIC […]) was 12. The “Number of test isolates at MIC” value ([2]; MIC […]) was 12, the “Number of test isolates at MIC” value ([2]; MIC ≤0.03 μg/mL) was 3 and the “Number of test isolates at MIC” value ([3]; MIC 1 μg/mL) was 1. The “Cumulative percentage of isolates inhibited at MIC” value ([3]; MIC >32 μg/mL) was 100.0%, the “Number of test isolates at MIC” value ([3]; MIC >32 μg/mL) was 1 and the “Cumulative percentage of isolates inhibited at MIC” value ([5]; listed as RFX) was 75.0% and 100.0%. The MIC50 [4] was 32 µg/mL (≈ 40.7 µM), the MIC90 [4] was greater than 64 µg/mL and the Mode [4] was 16 µg/mL. The “Cumulative percentage of isolates at MIC” value ([4]; 8 μg/mL) was 10.0%, the “Number of test isolates at MIC” value ([4]; 8 μg/mL) was 5 and the “Cumulative percentage of isolates at MIC” value ([4]; 16 μg/mL) was 46.0%. For the same compound, the “Number of test isolates at MIC” value ([4]; 16 μg/mL) was 18, the “Cumulative percentage of isolates at MIC” value ([4]; 32 μg/mL) was 64.0% and the “Number of test isolates at MIC” value ([4]; 32 μg/mL) was 9. For the same compound, the “Cumulative percentage of isolates at MIC” value ([4]; 64 μg/mL) was 80.0%, the “Number of test isolates at MIC” value ([4]; 64 μg/mL) was 8 and the “Cumulative percentage of isolates at MIC” value ([4]; >64 μg/mL) was 100.0%. The “Number of test isolates at MIC” value ([4]; >64 μg/mL) was 10 and the MIC90 ([4]; listed as RFX) was greater than 64 µg/mL.
With `CN[C@H](CC(C)C)C(=O)N[C@H]1C(=O)N[C@@H](CC(N)=O)C(=O)N[C@H]2C(=O)N[C@H]3C(=O)N[C@H](C(=O)N[C@H](C(=O)O)c4cc(O)cc(O)c4-c4cc3ccc4O)[C@H](O)c3ccc(c(Cl)c3)Oc3cc2cc(c3O[C@@H]2O[C@H](CO)[C@@H](O)[C@H](O)[C@H]2O[C@H]2C[C@](C)(N)[C@H](O)[C@H](C)O2)Oc2ccc(cc2Cl)[C@H]1O` [vancomycin, Vancomycin] the “Cumulative percentage of isolates inhibited at MIC” value [5, 6] was 100.0% and the “Number of test isolates at MIC” value [5, 6] was 1.
For `COc1c(N2C[C@@H]3CCCN[C@@H]3C2)c(F)cc2c(=O)c(C(=O)O)cn(C3CC3)c12` [moxifloxacin], the “Cumulative percentage of isolates inhibited at MIC” value [5, 7] was 15.0%, the “Number of test isolates at MIC” value [5, 7] was 3 and the MIC range [4] was 0.015 to 128 µg/mL. For the same compound, the Mode [4] was 0.06 µg/mL, the “Cumulative percentage of isolates at MIC” value ([4]; 0.015 μg/mL) was 2.0% and the “Number of test isolates at MIC” value ([4]; 0.015 μg/mL) was 1. The “Cumulative percentage of isolates at MIC” value ([4]; 0.03 μg/mL) was 8.0%, the “Number of test isolates at MIC” value ([4]; 0.03 μg/mL) was 3 and the “Cumulative percentage of isolates at MIC” value ([4]; 0.06 μg/mL) was 56.0%. For the same compound, the “Number of test isolates at MIC” value ([4]; 0.06 μg/mL) was 24, the “Cumulative percentage of isolates at MIC” value ([4]; 0.5 μg/mL) was 77.0% and the “Number of test isolates at MIC” value ([4]; 0.5 μg/mL) was 2. The “Cumulative percentage of isolates at MIC” value ([4]; 1 μg/mL) was 74.0%, the “Number of test isolates at MIC” value ([4]; 1 μg/mL) was 1 and the “Cumulative percentage of isolates at MIC” value ([4]; 2 μg/mL) was 80.0%. For the same compound, the “Number of test isolates at MIC” value ([4]; 2 μg/mL) was 3, the “Cumulative percentage of isolates at MIC” value ([4]; 4 μg/mL) was 84.0% and the “Number of test isolates at MIC” value ([4]; 4 μg/mL) was 2. For the same compound, the “Cumulative percentage of isolates at MIC” value ([4]; 16 μg/mL) was 88.0%, the “Number of test isolates at MIC” value ([4]; 16 μg/mL) was 2 and the “Cumulative percentage of isolates at MIC” value ([4]; 32 μg/mL) was 94.0%. The “Number of test isolates at MIC” value ([4]; 32 μg/mL) was 3, the “Cumulative percentage of isolates at MIC” value ([4]; 64 μg/mL) was 96.0% and the “Number of test isolates at MIC” value ([4]; 64 μg/mL) was 1. The “Cumulative percentage of isolates at MIC” value ([4]; 128 μg/mL) was 100.0%, the “Number of test isolates at MIC” value ([4]; 128 μg/mL) was 2 and the MIC50 ([4]; Klebsiella, read-out: MIC50) was 0.06 µg/mL (≈ 0.149 µM). For the same compound, the MIC90 ([4]; Klebsiella, read-out: MIC90) was 32 µg/mL (≈ 79.7 µM).
